Here are results for two compounds from US20250145605A1, “CRYSTAL FORM AND SALT OF PHENOTHIAZINE COMPOUND, PREPARATION METHOD THEREFOR AND USE THEREOF” (CHENGDU HENGHAO INNOVATIVE SCIENCE AND TECHNOLOGY CO., LTD., priority 2022, published 2025).

Assay [1] relates to human neuroblastoma SH-SY5Y cells. The experiment in a line: Inhibition of Erastin-induced ferroptosis, CCK8 cell viability test, SH-SY5Y. In kind it is cell-based. To be noted: Erastin at a final concentration of 10 M, 24 h. As for the experimental part: (§1) Experimental method: In this example, a screening model for ferroptosis was constructed to investigate a ferroptosis inhibitor. Specifically, the screening model for ferroptosis was mainly based on the CCK8 cell viability test. Firstly, mouse hippocampal neuronal cells HT22 and human neuroblastoma SH-SY5Y cells were cultured in a dish. 80 μL of cells (5000 cells/well) in logarithmic growth phase were seeded to a 96-well plate per well, and then cultured in an incubator at 37° C., 5% CO2 to allow adhesion of cells. After 24 h, 10 μL of the compound of the present disclosure at various concentrations prepared with the specified medium and 10 μL of Erastin (ferroptosis inducer) at a final concentration of […] were added. 3 replicate wells were set for each compound to ensure the accuracy of the results. A positive control group (10 μL of a certain concentration of the compound Ferrostain-1 and 10 μL of Erastin (ferroptosis inducer) prepared with the same medium were added with reference to the above description). […] The absorbance at 450 nm was detected by a microplate reader to calculate the inhibition rate of ferroptosis by the drug. […]
(§2) The inhibition rate change curve was fitted and the IC50 was calculated by the software GraphPadPrism6.
On the technique in general: Tetrazolium assays rely on reduction of a dye to a coloured formazan, in cell work by metabolically active cells.

For assay [2], the system named is mouse hippocampal neuronal cells HT22. The experiment in a line: Inhibition of Erastin-induced ferroptosis, CCK8 cell viability test, HT22. Type of assay: cell-based. To be noted: 24 h. The method, then:
as §1, §2

Regarding `CC(c1ccc(N2CCN(C)CC2)cc1)c1ccc2c(c1)Nc1ccccc1S2` (stereo not shown), the IC50 in assay [1] (Homo sapiens) was found to be 1.41 nM; in assay [2] (Mus musculus, HT-22, HT22, Erastin at a final concentration of 10 µM), 2.87 nM.

As to `CCOC(=O)c1ccc(NC2CCCCC2)c(N)c1` [Ferrostain-1], the IC50 in assay [1] worked out at 53.9 nM; in assay [2] (HT22, Erastin at a final concentration of 10 µM), 96.2 nM.

The term IC50 denotes the concentration that inhibits the measured activity by half.
